Measurements taken from patent publication US20170081357A1, “[…] ACTIVE 17-NITROGEN SUBSTITUTED ESTRATREINTHIAZOLE DERIVATIVES AS INHIBITORS OF 17.BETA-HYDROXYSTEROID DEHYDROGENASE” (FORENDO PHARMA LTD, priority 2013, published 2017).

How the values were obtained:
[1] = biological target: T1, recombinant human 17β-HSD1 (Homo sapiens, UniProt P14061); assay: Inhibition of recombinant human 17β-HSD1 (conversion of 3H-estrone to estradiol, HPLC); format: biochemical; settings: inhibitor 1 μM; 30 nM estrone, 1 mM NADPH, 30 min at RT; read-out: 17β-HDS1 Inhibition % at 1 μM
T1 construct: made in house; host or cells: Sd9 (Sf9) insect cells, baculovirus (Bac to Bac Expression System); microsomal fraction
T1 sequence (P14061 1-328): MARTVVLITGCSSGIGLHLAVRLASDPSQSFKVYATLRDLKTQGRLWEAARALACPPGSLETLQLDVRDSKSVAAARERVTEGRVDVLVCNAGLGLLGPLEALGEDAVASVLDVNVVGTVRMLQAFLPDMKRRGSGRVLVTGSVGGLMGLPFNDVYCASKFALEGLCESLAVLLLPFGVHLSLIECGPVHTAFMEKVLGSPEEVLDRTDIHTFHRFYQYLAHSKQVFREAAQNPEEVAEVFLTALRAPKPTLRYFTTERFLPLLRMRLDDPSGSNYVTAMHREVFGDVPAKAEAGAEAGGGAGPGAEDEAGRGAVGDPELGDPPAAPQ
Protocol: 17β-HSD1 production and isolation: Recombinant baculovirus was generated by the “Bac to Bac Expression System” (Invitrogen). Recombinant bacmid was transfected to Sd9 insect cells using “Cellfectin Reagent” (Invitrogen). 60 h later cells were harvested; the microsomal fraction was isolated as described by Puranen, T. J., Poutanen, M. H., Peltoketo, H. E., Vihko, P. T. and Vihko, R. K. (1994) Site-directed mutagenesis of the putative active site of human 17 β-hydroxysteroid dehydrogenase type 1. Biochem. J. 304: 289-293. Aliquots were stored frozen until determination of enzymatic activity.
Assay—Inhibition of recombinant human 17β-HSD1: Recombinant protein (1 μg/ml) was incubated in 20 mM KH2PO4 pH 7.4 with 30 nM estrone (including 800 000 cpm/ml of ^3H-estrone) and 1 mM NADPH for 30 min at RT, in the presence of the potential inhibitor at concentrations 1 μM or 0.1 μM. Inhibitor stock solutions were prepared in DMSO. Final concentration of DMSO was adjusted to 1% in all samples. The enzyme reaction was stopped by addition of 10% trichloroacetic acid (final concentration). Samples were centrifuged in a microtiter plate at 4000 rpm for 10 min. Supernatants were applied to reverse phase HPLC on a Waters Symmetry C18 column, equipped with a Waters Sentry Guard column. Isocratic HPLC runs were performed at RT at a flow rate of 1 ml/min in acetonitrile:water 48:52 as running solvent. Radioactivity was monitored in the eluate by a Packard Flow Scintillation Analyzer. Total radioactivity for estrone and estradiol were determined in each sample and percent conversion of estrone to estradiol was calculated according to the following formula:
(§1) Percent inhibition was calculated flowingly: % inhibition=100−% conversion

[2] = Metabolic stability assay, human liver microsome and homogenate incubations; format: in vitro ADME; settings: human liver homogenate or microsomes, LC/PDA/TOF-MS
Protocol: The in vitro metabolic stability of the compounds of the invention was determined for exemplified compounds using human liver microsome and homogenate incubations. The incubation time points used with or without appropriate cofactors were 0 min and 60 min. Samples were collected at both time points and substrates were detected using LC/PDA/TOF-MS. In vitro metabolic stability (% remaining after 60 min in human liver homogenate or microsomes) of the compounds were calculated and the results are summarized in Table 3.

[3] = biological target: T2, recombinant human 17β-HSD2 (Homo sapiens, UniProt P37059); assay: Inhibition of recombinant human 17β-HSD2 (conversion of 3H-estradiol to estrone, HPLC); format: biochemical; settings: inhibitor 1 μM; 50 nM estradiol, 1 mM NADH, 30 min at RT
T2 construct: made in house; host or cells: Sd9 (Sf9) insect cells, baculovirus (Bac to Bac Expression System); fractionated cell extract
T2 sequence (P37059 1-387): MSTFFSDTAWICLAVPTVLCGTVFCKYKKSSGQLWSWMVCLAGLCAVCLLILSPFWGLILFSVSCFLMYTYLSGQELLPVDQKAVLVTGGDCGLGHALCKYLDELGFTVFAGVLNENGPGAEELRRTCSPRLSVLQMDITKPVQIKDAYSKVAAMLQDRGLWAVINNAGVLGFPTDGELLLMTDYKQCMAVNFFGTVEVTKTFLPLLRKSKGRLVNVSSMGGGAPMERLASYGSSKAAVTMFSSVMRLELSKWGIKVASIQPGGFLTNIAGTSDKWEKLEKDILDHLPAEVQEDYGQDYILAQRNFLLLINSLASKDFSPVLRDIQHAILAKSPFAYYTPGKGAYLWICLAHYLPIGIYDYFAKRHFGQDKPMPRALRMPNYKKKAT
Protocol: 17β-HSD2 production and isolation: Similarly to 17β-HSD1 the Recombinant baculovirus was generated by the “Bac to Bac Expression System” (Invitrogen). Recombinant bacmid was transfected to Sd9 insect cells using “Cellfectin Reagent” (Invitrogen). 60 h later cells were harvested and supernatant were fractionated by the following protocol: • cells were dissolved into 40 ml of A-buffer (40 mM TRIS, pH8.0, 20% glycerol, 20 μM NAD, 0.4 mM PMSF, 150 mM NaCl, 0.5% dodecyl-β-maltoside+protease inhibitor cocktail) • cells were sonicated • lysate was incubated on ice for 15 min • lysate was centrifuged 5000 rpm 15 min, +4° C. • centrifugation of the supernatant 180 000 g 30 min, +4° C. • pellet was dissolved into 8 ml of A-buffer • not resuspended material was removed by centrifugation 5000 rpm 15 min, +4° C. • the clear supernatant was divided into 100 μl aliquots and were stored frozen until determination of enzymatic activity.
The amount of 17β-HSD2 was analysed by immunoblotting and total protein concentration of each extract batch was determined.
Assay—Inhibition of recombinant human 17β-HSD2: Recombinant protein (4 μg/ml) was incubated in 20 mM KH2PO4 pH 8.5 with 50 nM estradiol (including 800 000 cpm/ml of ^3H-estradiol) and 1 mM NADH for 30 min at RT, in the presence of the potential inhibitor at concentrations 1 μM or 0.1 μM. Inhibitor stock solutions were prepared in DMSO. Final concentration of DMSO was adjusted to 1% in all samples. The enzyme reaction was stopped by addition of 10% trichloroacetic acid (final concentration). Samples were centrifuged in a microtiter plate at 4000 rpm for 10 min. Supernatants were applied to reverse phase HPLC on a Waters Symmetry C18 column, equipped with a Waters Sentry Guard column. Isocratic HPLC runs were performed at RT at a flow rate of 1 ml/min in acetonitrile:water 48:52 as running solvent. Radioactivity was monitored in the eluate by a Packard Flow Scintillation Analyzer. Total radioactivity for estrone and estradiol were determined in each sample and percent conversion of estradiol to estrone was calculated according to the following formula:
as §1

| Compound | inhibition at 1 µM [1] | In vitro metabolic stability, % remaining after 60 min [2] | inhibition at 1 µM [3] |
| --- | --- | --- | --- |
| COc1ccc2c(c1)CCC1C2CC[C@]2(C)c3n[nH]cc3[C@@H](CCC(=O)Nc3ncc(C)s3)C12 (stereo partly drawn) [Compound 50, 3-((6aS,10S)-2-Methoxy-6a-methyl-4b,5,6,6a,8,10,10a,10b,11,12-decehydro-7,8-diaza-pentaleno[2,1-1]phenanthren-10-yl}-N-(5-methylthiazol-2-yl)propanamide] | 78% | 88% | 0% |
| Cc1cnc(NC(=O)CC[C@@H]2c3c[nH]nc3[C@@]3(C)CCC4c5ccc(O)cc5CCC4C23)s1 (stereo partly drawn) [Compound 51, 3-((6aS,10S)-2-Hydroxy-6a-methyl-4b,5,6,6a,8,10,10a,10b,11,12-decehydro-7,8-diaza-pentaleno[2,1-1]phenanthren-10-yl}-N-(5-methylthiazol-2-yl)propanamide] | 82% | 46% | 15% |
| Cc1cnc(NC(=O)CC[C@@H]2c3c[nH]nc3[C@@]3(C)CCC4c5cc(C(C)(C)C)c(O)cc5CCC4C23)s1 (stereo partly drawn) [Compound 53, 3-((6aS,10S)-3-tert-Butyl-2-hydroxy-6a-methyl-4b,5,6,6a,8,10,10a,10b,11,12-decehydro-7,8-diaza-pentaleno[2,1-1]phenanthren-10-yl}-N-(5-methylthiazol-2-yl)propanamide] | 76% | 100% | 13% |
| Cc1cnc(NC(=O)CC[C@@H]2c3c[nH]nc3[C@@]3(C)CCC4c5cc([N+](=O)[O-])c(O)cc5CCC4C23)s1 (stereo partly drawn) [Compound 55, 3-((6aS,10S)-2-Hydroxy-6a-methyl-2-nitro-4b,5,6,6a,8,10,10a,10b,11,12-decehydro-7,8-diaza-pentaleno[2,1-1]phenanthren-10-yl}-N-(5-methylthiazol-2-yl)propanamide] | 69% | 86% | 7% |
| Cc1cnc(NC(=O)CC[C@@H]2C/C(=N\O)[C@@]3(C)CCC4c5ccccc5CCC4C23)s1 (stereo partly drawn) [Compound 59, 3-{(13S,15R)-17-[(E)-hydroxyimino]-13-methyl-7,8,9,11,12,13,14,15,16,17-decahydro-6H-cyclopenta[a]phenanthren-15-yl}-N-(5-methylthiazol-2-yl)propanamide] | 93% | 100% | 2% |
| Cc1cnc(NC(=O)CC[C@@H]2C/C(=N\O)[C@@]3(C)CCC4c5cc(Br)c(O)c(Br)c5CCC4C23)s1 (stereo partly drawn) [Compound 64, 3-{(13S,15R)-2,4-Dibromo-3-hydroxy-17-[(E)-hydroxyimino]-13-methyl-7,8,9,11,12,13,14,15,16,17-decahydro-6H-cyclopenta[a]phenanthren-15-yl}-N-(5-methylthiazol-2-yl)propanamide] | – | 95% | – |
| Cc1cnc(NC(=O)CC[C@@H]2C(=C\O)/C(=N\O)[C@@]3(C)CCC4c5cc(Br)c(O)c(Br)c5CCC4C23)s1 (stereo partly drawn) [Compound 70, 3-{(13S,15S)-2,4-Dibromo-3-hydroxy-17-[(Z)-hydroxyimino]-16-[1-hydroxy-meth-(E)-ylidene]-13-methyl-7,8,9,11,12,13,14,15,16,17-decahydro-6H-cyclopenta[a]phenanthren-15-yl}-N-(5-methylthiazol-2-yl)propanamide] | 94% | 97% | 8% |
| CO/N=C1\C[C@@H](CCC(=O)Nc2ncc(C)s2)C2C3CCc4cc(O)ccc4C3CC[C@]12C (stereo partly drawn) [Compound 73, 3-{(13S,15R)-3-Hydroxy-17-[(E)-methoxyimino]-13-methyl-7,8,9,11,12,13,14,15,16,17-decahydro-6H-cyclopenta[a]phenanthren-15-yl}-N-(5-methylthiazol-2-yl)propanamide] | – | 73% | – |
| CO/N=C1\C[C@@H](CCC(=O)Nc2ncc(C)s2)C2C3CCc4cc(O)c(C(C)(C)C)cc4C3CC[C@]12C (stereo partly drawn) [Compound 76, 3-{(13S,15R)-2-tert-Butyl-3-hydroxy-17-[(E)-methoxyimino]-13-methyl-7,8,9,11,12,13,14,15,16,17-decahydro-6H-cyclopenta[a]phenanthren-15-yl}-N-(5-methylthiazol-2-yl)propanamide] | – | 100% | – |
| CO/N=C1\C[C@@H](CCC(=O)Nc2ncc(C)s2)C2C3CCc4cc(O)c(Br)cc4C3CC[C@]12C (stereo partly drawn) [Compound 85, 3-{(13S,15R)-2-Bromo-3-hydroxy-17-[(E)-methoxyimino]-13-methyl-7,8,9,11,12,13,14,15,16,17-decahydro-6H-cyclopenta[a]phenanthren-15-yl}-N-(5-methylthiazol-2-yl)-propanamide] | – | 34% | – |
| CO/N=C1\C[C@@H](CCC(=O)Nc2ncc(C)s2)C2C3CCc4cc(O)c(Cl)cc4C3CC[C@]12C (stereo partly drawn) [Compound 88, 3-{(13S,15R)-2-Chloro-3-hydroxy-17-[(E)-methoxyimino]-13-methyl-7,8,9,11,12,13,14,15,16,17-decahydro-6H-cyclopenta[a]phenanthren-15-yl}-N-(5-methylthiazol-2-yl)propanamide] | – | 94% | – |
| CO/N=C1\C[C@@H](CCC(=O)Nc2ncc(C)s2)C2C3CCc4cc(O)c(F)cc4C3CC[C@]12C (stereo partly drawn) [Compound 91, 3-{(13S,15R)-2-Fluoro-3-hydroxy-17-[(E)-methoxyimino]-13-methyl-7,8,9,11,12,13,14,15,16,17-decahydro-6H-cyclopenta[a]phenanthren-15-yl}-N-(5-methylthiazol-2-yl)propanamide] | 94% | 92% | 5% |
